Assay results from publication PMC6199744, “Development of Chemical Proteomics for the Folateome and Analysis of the Kinetoplastid Folateome” (ACS Infectious Diseases, 2018).
Like-named read-outs stand apart in the source and are kept apart here.

What was measured:
[1] = system: SUCCINYL-COA SYNTHETASE ALPHA SUBUNIT, PUTATIVE (Tb427.03.2230); assay: Multitargeted bead mixture competition; type: binding; conditions: free ligand 100 μM, T. brucei lysate
[2] = system: TB09.211.1690; assay: Multitargeted bead mixture competition; type: binding; conditions: free ligand 100 μM, T. brucei lysate
[3] = system: TB927.7.1340; assay: Multitargeted bead mixture competition; type: binding; conditions: free ligand 100 μM, T. brucei lysate
[4] = system: T. brucei; design: method as in ref 5 (SI); conditions: ref 5 (SI); read-out: EC50 against T. brucei, in vitro cell growth; cited from earlier work
[5] = system: HYPOTHETICAL PROTEIN, CONSERVED (TB427.05.3680); assay: Multitargeted bead mixture competition; type: binding; conditions: free ligand 100 μM, T. brucei lysate
[6] = system: TB927.8.6760; assay: Multitargeted bead mixture competition; type: binding; conditions: free ligand 100 μM, T. brucei lysate
[7] = system: PHOSPHATIDYLINOSITOL-4-PHOSPHATE 5-KINASE, PUTATIV (TB427.10.3890); assay: Multitargeted bead mixture competition; type: binding; conditions: free ligand 100 μM, T. brucei lysate
[8] = biological target: T1, HeLa cell extract proteins (Homo sapiens, UniProt P36776); type: binding; conditions: protein LONP1; HeLa
T1 construct: endogenous in cells; host or cells: HeLa cell extract
T1 sequence (P36776 68-959): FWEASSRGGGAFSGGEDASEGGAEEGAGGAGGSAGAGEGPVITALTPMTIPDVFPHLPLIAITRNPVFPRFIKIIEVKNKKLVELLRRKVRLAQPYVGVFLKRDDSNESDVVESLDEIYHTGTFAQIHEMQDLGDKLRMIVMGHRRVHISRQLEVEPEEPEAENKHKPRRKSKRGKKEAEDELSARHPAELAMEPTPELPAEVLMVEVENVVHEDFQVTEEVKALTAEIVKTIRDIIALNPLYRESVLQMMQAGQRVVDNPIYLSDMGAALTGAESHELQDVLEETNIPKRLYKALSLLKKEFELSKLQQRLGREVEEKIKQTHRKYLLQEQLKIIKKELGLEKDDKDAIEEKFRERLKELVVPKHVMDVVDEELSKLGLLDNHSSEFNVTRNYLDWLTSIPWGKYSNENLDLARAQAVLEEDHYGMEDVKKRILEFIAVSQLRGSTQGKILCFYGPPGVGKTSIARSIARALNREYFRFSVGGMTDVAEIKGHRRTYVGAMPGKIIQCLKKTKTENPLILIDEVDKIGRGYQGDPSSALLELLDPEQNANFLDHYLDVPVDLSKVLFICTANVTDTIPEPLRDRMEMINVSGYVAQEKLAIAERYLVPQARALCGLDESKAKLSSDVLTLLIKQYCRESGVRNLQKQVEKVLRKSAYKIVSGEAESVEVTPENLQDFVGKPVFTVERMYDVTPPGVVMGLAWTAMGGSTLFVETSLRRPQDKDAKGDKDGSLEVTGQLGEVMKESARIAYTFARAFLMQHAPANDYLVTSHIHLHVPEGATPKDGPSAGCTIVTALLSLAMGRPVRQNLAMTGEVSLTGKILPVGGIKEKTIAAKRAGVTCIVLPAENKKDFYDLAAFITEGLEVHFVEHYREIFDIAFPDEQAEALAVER

[9] = system: TB427.04.1870; assay: Multitargeted bead mixture competition; type: binding; conditions: free ligand 100 μM, T. brucei lysate
[10] = system: TB11.03.0290; assay: Multitargeted bead mixture competition; type: binding, T. brucei; conditions: for fold change - vehicle control: protein TB11.03.0290 PROTEIN KINASE, PUTATIVE
[11] = system: ACETYLTRANSFERASE, PUTATIVE (Tb427.08.3310); assay: Multitargeted bead mixture competition; type: binding; conditions: free ligand 100 μM, T. brucei lysate
[12] = system: HYPOTHETICAL PROTEIN, CONSERVED (TB427.03.2670); assay: Multitargeted bead mixture competition; type: binding; conditions: free ligand 100 μM, T. brucei lysate
[13] = biological target: T2, HeLa cell extract proteins (Homo sapiens, UniProt P35268); type: binding
T2 construct: endogenous in cells; host or cells: HeLa cell extract

[14] = biological target: T3, HeLa cell extract proteins (Homo sapiens, UniProt O00505); type: binding
T3 construct: endogenous in cells; host or cells: HeLa cell extract
T3 sequence (O00505 1-521): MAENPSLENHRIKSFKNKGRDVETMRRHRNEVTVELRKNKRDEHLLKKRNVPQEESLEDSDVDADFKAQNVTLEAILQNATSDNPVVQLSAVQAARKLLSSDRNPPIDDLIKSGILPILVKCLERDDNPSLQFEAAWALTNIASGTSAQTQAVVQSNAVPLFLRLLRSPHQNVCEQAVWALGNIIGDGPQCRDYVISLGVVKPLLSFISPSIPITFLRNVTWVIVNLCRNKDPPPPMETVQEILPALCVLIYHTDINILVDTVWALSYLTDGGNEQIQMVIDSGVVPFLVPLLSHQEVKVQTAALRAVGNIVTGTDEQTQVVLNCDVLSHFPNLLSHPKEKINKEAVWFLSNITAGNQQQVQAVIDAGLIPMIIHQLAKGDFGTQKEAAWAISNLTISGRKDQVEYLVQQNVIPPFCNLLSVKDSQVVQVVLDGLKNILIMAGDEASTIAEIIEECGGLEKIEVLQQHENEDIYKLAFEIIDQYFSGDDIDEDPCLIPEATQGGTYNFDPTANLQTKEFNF

[15] = biological target: TbDHFR; conditions: direct enzyme assays; cited from earlier work

## Nc1nc2cccc(-c3ccccc3)c2n1Cc1ccc(Cl)c(Cl)c1 [compound 3]
[1]
  percentage of competition from bead binding: 10%
[2]
  percentage of competition from bead binding: 39%
[3]
  percentage of competition from bead binding: 40%
[4]
  EC50: 10 µM
[5]
  percentage of competition from bead binding: 68%
[6]
  percentage of competition from bead binding: 20%
[7]
  percentage of competition from bead binding: -23%
[8]
  fold changes relative to vehicle control: 1.16
[9]
  percentage of competition from bead binding: 47%
[10]; multitargeted bead mixture, free ligand 100 μM, T. brucei lysate, TB11.03.0290
  percentage of competition from bead binding: 10%
[10]
  fold change - vehicle control: 1.06
[11]
  percentage of competition from bead binding: 37%
[12]
  percentage of competition from bead binding: 62%

## NCCOCCOCC(=O)Nc1nc2ncc(CNc3ccc(C(=O)NC(CCC(=O)O)C(=O)O)cc3)nc2c(=O)[nH]1 (centres unmarked) [compound 6]
[13]; HeLa, protein RPL22
  fold changes relative to vehicle control: 1.2
[14]; HeLa, captured protein KPNA3
  fold changes relative to vehicle control: 1.02

## Nc1nc2[nH]cc(CCc3ccc(C(=O)N[C@@H](CCC(=O)O)C(=O)O)cc3)c2c(=O)[nH]1 [PTX, pemetrexed]
[13]
  fold changes relative to vehicle control: 0.98
[14]
  fold changes relative to vehicle control: 0.9
[15]
  Ki: 0.29 ± 0.02 µM

## Nc1nc2c(c(=O)[nH]1)N(C=O)C(CNc1ccc(C(=O)N[C@@H](CCC(=O)O)C(=O)O)cc1)CN2 (some centres unmarked) [LEU, leucovorin]
[13]; HeLa, protein RPL22
  fold changes relative to vehicle control: 0.86
[14]; HeLa, captured protein KPNA3
  fold changes relative to vehicle control: 0.9

## CCCCCCOc1ccc(Cc2cnc(N)nc2N)cc1 [compound 1]
[8]
  fold changes relative to vehicle control: 0.86
[10]
  fold change - vehicle control: 0.91

## NCCCNc1ccc(C(=O)NC(CCC(=O)O)C(=O)O)cc1 (centres unmarked) [compound 7]
[13]; HeLa, protein RPL22
  fold changes relative to vehicle control: 1.19
[14]; HeLa, captured protein KPNA3
  fold changes relative to vehicle control: 0.87

## CCCCCCOc1cccc(Cc2cnc(N)nc2N)c1 [compound 2]
[8]
  fold changes relative to vehicle control: 1.41
[10]
  fold change - vehicle control: 0.99
